Reference: EP4631938A1, “NITROGEN-CONTAINING HETEROCYCLE WITH SEROTONIN RECEPTOR-BINDING ACTIVITY AND CARBOCYCLIC DERIVATIVE” (Shionogi & Co., Ltd, priority 2022, dated 2024)

Legend:
[1] = target: T1, human ether-a-go-go related gene (hERG) channel (Homo sapiens, UniProt Q12809); assay: Test Example 3-2: hERG test (FluxORII thallium flux, FLIPR, 4000 cells/well); type: cell-based; conditions: CHO cells expressing hERG channel, compound reacted for 10 minutes, 100% inhibition = E-4031 10.3 µmol/L
T1 construct: expressed in transfected cells; host or cells: CHO cells
Procedure: For the purpose of evaluating risk of an electrocardiogram QT interval prolongation of the compound of the present invention, effects of the compound are studied by evaluating the activity of potassium channel using CHO cells expressing human ether-a-go-go related gene (hERG) channel.
Evaluation is performed using a FluxORII Green Potassium Ion Channel Assay kit (Invitrogen: Molecular Probes).
Cells (4000 cells/well/40 µL) are seeded in a 384 assay plate, and are incubated overnight (37°C, 5% CO2). After replacing the medium with a Wash buffer (lxHBSS, 20 mM HEPES) with a microplate washer, a fluorescent indicator is added to the medium and allowed to incubate (37°C, 5% CO2) for 1 hour for incorporation of the fluorescent indicator into cells.
A cell plate is placed on a cell-based kinetic assay system FLIPR (Molecular Devices, LLC.), and the compound is added to the cells so as to have a desired concentration and reacted for 10 minutes. When a mixed solution of potassium and thallium as a stimulator is added thereto, the potassium channel is opened, and thallium that flowed into the cells binds to the fluorescent indicator, so that the intracellular fluorescence signal increases, and the potassium channel current is detected as a fluorescence signal. […] Then, the inhibition rate is calculated from the signal intensity at each concentration. IC50 is calculated from the inhibition rate at each concentration.

CYP3A4 = target: T2, CYP3A4 (Homo sapiens, UniProt P08684); assay: Test Example 8: CYP3A4 (MDZ) MBI test; type: in vitro ADME; conditions: pooled human liver microsomes; substrate 10 µmol/L MDZ; pre-reaction 0 or 30 minutes; compound 0.83, 5, 10, 20 µmol/L
T2 construct: pooled human liver microsomes by 1-hydroxylation reaction of midazolam (MDZ) as a marker reaction; from tissue; host or cells: pooled human liver microsomes
Procedure: CYP3A4 (MDZ) MBI test is a test of investigating MBI potential on CYP3A4 by the enhancement of inhibitory degree of a metabolic reaction caused by the compound of the present invention. CYP3A4 inhibition is evaluated using pooled human liver microsomes by 1-hydroxylation reaction of midazolam (MDZ) as a marker reaction.
The reaction conditions are as follows: substrate, 10 µmol/L MDZ; pre-reaction time, 0 or 30 minutes; substrate reaction time, 2 minutes; reaction temperature, 37°C; pooled human liver microsomes, at pre-reaction 0.5 mg/mL, at reaction 0.05 mg/mL (at 10-fold dilution); concentrations of the compound of the present invention, at pre-reaction 0.83, 5, 10, 20 µmol/L (4 points).
Pooled human liver microsomes and a solution of the compound of the present invention in K-Pi buffer (pH 7.4) as a pre-reaction solution are added to a 96-well plate at the composition of the pre-reaction. A part of pre-reaction solution is transferred to another 96-well plate, and diluted 10-fold by K-Pi buffer containing a substrate. NADPH as a cofactor is added to initiate a reaction as a marker reaction (without preincubation). After a predetermined time of the reaction, methanol/acetonitrile=1/1 (V/V) solution is added to stop the reaction. NADPH is also added to the remaining pre-reaction solution to initiate the pre-reaction (with pre-reaction), and after the pre-reaction for a predetermined time, a part is transferred to and diluted 10-fold by K-Pi buffer containing a substrate to initiate the reaction as a marker reaction. After a predetermined reaction time, the reaction is stopped by adding a methanol/acetonitrile = 1/1 (V/V) solution. Each plate where the indicator reaction has been performed is centrifuged at 3000 rpm for 15 minutes. Then, midazolam 1-hydroxide in the centrifuged supernatant is quantified by LC/MS/MS.
The sample adding DMSO as a solvent to a reaction system instead of a solution dissolving the compound of the present invention is adopted as a control (100 %). Remaining activity (%) is calculated at each concentration of the compound of the present invention compared to a control, and IC value is calculated by reverse-presumption by a logistic model using a concentration and an inhibition rate. Shifted IC value is calculated as "IC of preincubation at 0 minutes/ IC of preincubation at 30 minutes". When a shifted IC is 1.5 or more, this is defined as positive. When a shifted IC is 1.0 or less, this is defined as negative.

T1 sequence (Q12809 whole entry): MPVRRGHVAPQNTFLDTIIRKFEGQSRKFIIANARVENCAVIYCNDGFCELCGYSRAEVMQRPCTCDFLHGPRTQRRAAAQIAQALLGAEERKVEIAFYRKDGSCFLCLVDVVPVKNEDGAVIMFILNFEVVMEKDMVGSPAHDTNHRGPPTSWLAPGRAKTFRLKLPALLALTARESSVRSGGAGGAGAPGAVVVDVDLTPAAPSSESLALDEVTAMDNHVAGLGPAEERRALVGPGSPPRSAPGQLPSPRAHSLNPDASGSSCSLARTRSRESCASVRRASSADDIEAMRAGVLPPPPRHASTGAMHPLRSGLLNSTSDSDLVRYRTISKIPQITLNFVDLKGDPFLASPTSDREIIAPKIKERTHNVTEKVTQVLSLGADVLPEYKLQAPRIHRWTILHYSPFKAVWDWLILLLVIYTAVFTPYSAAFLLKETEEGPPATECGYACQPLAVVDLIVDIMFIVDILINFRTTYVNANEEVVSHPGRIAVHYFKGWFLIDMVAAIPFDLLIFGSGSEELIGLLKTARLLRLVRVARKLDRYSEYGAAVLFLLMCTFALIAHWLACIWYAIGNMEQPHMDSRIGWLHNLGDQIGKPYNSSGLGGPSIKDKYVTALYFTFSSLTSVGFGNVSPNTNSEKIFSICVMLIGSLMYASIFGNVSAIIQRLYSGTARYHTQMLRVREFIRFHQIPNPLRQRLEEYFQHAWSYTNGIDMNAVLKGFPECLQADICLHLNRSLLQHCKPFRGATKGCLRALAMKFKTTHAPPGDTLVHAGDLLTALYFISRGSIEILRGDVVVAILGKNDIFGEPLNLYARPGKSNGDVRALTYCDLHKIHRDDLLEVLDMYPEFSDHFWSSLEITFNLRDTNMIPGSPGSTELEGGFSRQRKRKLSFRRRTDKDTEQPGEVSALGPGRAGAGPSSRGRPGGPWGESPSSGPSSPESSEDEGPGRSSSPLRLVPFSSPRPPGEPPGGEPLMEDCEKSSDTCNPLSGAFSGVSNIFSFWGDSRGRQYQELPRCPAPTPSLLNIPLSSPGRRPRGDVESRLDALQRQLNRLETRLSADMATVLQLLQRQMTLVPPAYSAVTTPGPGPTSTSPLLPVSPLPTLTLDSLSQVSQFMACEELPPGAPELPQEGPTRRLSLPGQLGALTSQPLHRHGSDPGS
T2 sequence (P08684 whole entry): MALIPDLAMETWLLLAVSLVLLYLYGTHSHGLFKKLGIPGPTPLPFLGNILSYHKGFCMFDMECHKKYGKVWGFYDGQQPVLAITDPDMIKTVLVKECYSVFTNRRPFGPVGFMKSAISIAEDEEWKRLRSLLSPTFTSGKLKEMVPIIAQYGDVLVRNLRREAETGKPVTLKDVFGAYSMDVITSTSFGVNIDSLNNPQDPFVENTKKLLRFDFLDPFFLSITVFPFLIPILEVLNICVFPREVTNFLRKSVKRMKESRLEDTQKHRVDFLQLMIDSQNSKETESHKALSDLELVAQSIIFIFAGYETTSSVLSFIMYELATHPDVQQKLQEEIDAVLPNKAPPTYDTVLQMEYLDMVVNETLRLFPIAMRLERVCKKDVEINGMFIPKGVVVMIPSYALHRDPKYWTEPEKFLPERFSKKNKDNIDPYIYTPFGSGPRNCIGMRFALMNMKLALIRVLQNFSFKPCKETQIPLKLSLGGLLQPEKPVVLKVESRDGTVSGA

Row | SMILES | IC50 [1] [µM] | CYP3A4 (MDZ) MBI (shifted IC: IC of preincubation at 0 minutes/ IC of preincubation at 30 minutes) (CYP3A4)
1 | Cn1ncc(Br)c1-c1cc(Nc2ncc(C(F)(F)F)cc2F)ccc1OCCO [Compound I-006] | > 52 | –
2 | COCc1nc(C)c(-c2nc(Nc3ccc(C(F)(F)F)c(C)n3)c(F)cc2OCCO)c(C)n1 [Compound I-247] | – | Negative (When a shifted IC is 1.0 or less, this is defined as negative)
3 | Cn1ncc(F)c1-c1cc(Nc2ncc(C(F)(F)F)cc2F)cnc1OCCO [Compound I-127] | > 52 | Negative (When a shifted IC is 1.0 or less, this is defined as negative)
4 | COCc1nc(C)c(-c2cc(Nc3ncc(OC(F)(F)F)cc3Cl)ncc2OCCO)c(C)n1 [Compound I-200] | > 52 | Negative (When a shifted IC is 1.0 or less, this is defined as negative)
5 | Cc1nc(CO[C@@H]2CCOC2)nc(C)c1-c1cc(Nc2ncc(C(F)(F)F)cc2Cl)ncc1OCCO [Compound I-378] | – | Negative (When a shifted IC is 1.0 or less, this is defined as negative)
6 | Cc1nc(COC2COC2)nc(C)c1-c1cc(Nc2ncc(C(F)(F)F)cc2Cl)ncc1OCCO [Compound I-376] | – | Negative (When a shifted IC is 1.0 or less, this is defined as negative)
